Data published in paper PMC3986099, “Development of a Radioiodinated Triazolopyrimidine Probe for Nuclear Medical Imaging of Fatty Acid Binding Protein 4” (PLoS ONE, 2014).

How the values were obtained:
[1] = test system: 3T3-L1 preadipocytes and differentiated adipocytes; test: Cell uptake study in adipocytes and preadipocytes; format: cell-based, Murine; conditions: 37 °C, 1 hr
Protocol: Murine 3T3-L1 preadipocytes were obtained from ATCC and cultured in Dulbecco's Modified Eagle Medium (Nissui Pharmaceutical Co., Ltd.) supplemented with 10% heat-inactivated fetal bovine serum, 50 U/ml penicillin and 50 μg/ml streptomycin at 37 °C in 5% CO2. For cell uptake assay, differentiation of 3T3-L1 cells was performed as described previously. Briefly, two days after confluence, the medium was replaced with DMEM containing 10% FBS and inducers ([…], 10 μg/ml insulin, 0.5 mM 3-isobutyl-1-methylxanthine and 10 μM pioglitazone hydrochloride) for 2 days. The medium was then changed to DMEM supplemented with 10% FBS, 10 μg/ml insulin and 10 μM pioglitazone hydrochloride, and then incubated for 2 days. Then, the medium was changed to DMEM supplemented with 10% FBS and 10 μM pioglitazone hydrochloride every other day. After 8-10 days, the differentiated adipocytes were used for experiments.
For the cell uptake study using adipocytes, the medium of 24-well plate, in which the differentiated adipocytes or undifferentiated 3T3-L1 cells are cultured, was removed. […] Following the measurement of the radioactivity of collected cell lysate with a well-type γ-counter, protein determination was performed. […] Binding ratios were calculated as (radioactivity in collected cells)/(total applied radioactivity)/(protein abundance) x 100 (%Dose/mg protein).

C6 tumors = test: Biodistribution in C6 bearing mice; format: in vivo, Balb/c nu-nu mice; conditions: for Blood / Heart / Intestine / Kidney / Liver / Lung / Muscle / Pancreas / Spleen / Stomach / Tumor / T/B ratio / T/M ratio: C6 bearing mice, i.v.; for T/B ratio: tumor to blood; for T/M ratio: tumor to muscle
Protocol: C6 cells were suspended in PBS(-) followed by subcutaneous inoculation into the right hind legs of Balb/c nu-nu mice (5×10^6 cells/100 µL).
A saline solution (5% ethanol, v/v) of [^125I]TAP1 (0.06 MBq) was injected intravenously into the tail vein of C6 cell implantation model Balb/c nu-nu mice (males, 8 weeks old). The mice were sacrificed at various post-injection time points and organs, including tumor tissues, were removed. The weight and radioactivity of the organs were measured as mentioned above. Several model mice were sacrificed 3 hr after the injection by transcardial perfusion of saline (20 ml) under anesthesia with chloral hydrate. The weight and radioactivity of the removed organs, including tumor tissues, were measured as mentioned above.

In the case of O=c1cc(COc2cccc([125I])c2)[nH]c2nc(-c3ccccc3)nn12 [[^125I]TAP1], the “uptake into adipocytes (FABP4 positive) vs 3T3-L1 preadipocytes (FABP4 negative)” value [1] is reported as “significantly higher”, the “radioactivity accumulation in tumors (peak)” value (C6 tumors; 15 min after injection) is reported as 2.26±0.45 %ID/g and the “radioactivity accumulation in C6 tumors” value (C6 tumors; 3 hr after injection) is reported as 1.37±0.24 % dose/g. For the same compound, the “tumor accumulation, decapitation” value (C6 tumors; 3 hr after injection, sacrificed by decapitation) was 0.85±0.18 %ID/g, the “tumor accumulation, transcardial perfusion” value (C6 tumors; 3 hr after injection, sacrificed by transcardial perfusion) was 0.96±0.18 %ID/g and the “tumor to muscle ratio” value (C6 tumors; 3 hr after probe injection) was 3.6. The Blood (C6 tumors; 5 min) was 10.40±2.34 % injected dose per gram, the Heart (C6 tumors; 5 min) was 3.36±0.64 % injected dose per gram and the Intestine (C6 tumors; 5 min) was 2.35±0.34 % injected dose per gram. For the same compound, the Kidney (C6 tumors; 5 min) was 29.66±2.24 % injected dose per gram, the Liver (C6 tumors; 5 min) was 46.01±5.99 % injected dose per gram and the Lung (C6 tumors; 5 min) was 6.76±1.12 % injected dose per gram. It also gave a Muscle (C6 tumors; 5 min) of 1.05±0.33 % injected dose per gram, a Pancreas (C6 tumors; 5 min) of 2.55±0.31 % injected dose per gram and a Spleen (C6 tumors; 5 min) of 2.20± 0.44 % injected dose per gram. It also gave a Stomach (C6 tumors; 5 min) of 0.42±0.16 % injected dose per organ, a Tumor (C6 tumors; 5 min) of 1.94±0.44 % injected dose per gram and a Blood (C6 tumors; 15 min) of 6.60±0.61 % injected dose per gram. It also gave a Heart (C6 tumors; 15 min) of 2.45±0.41 % injected dose per gram, an Intestine (C6 tumors; 15 min) of 5.08±0.95 % injected dose per gram and a Kidney (C6 tumors; 15 min) of 62.82±9.70 % injected dose per gram. It also gave a Liver (C6 tumors; 15 min) of 37.58±2.88 % injected dose per gram, a Lung (C6 tumors; 15 min) of 4.26±0.19 % injected dose per gram and a Muscle (C6 tumors; 15 min) of 0.74±0.15 % injected dose per gram. It also gave a Pancreas (C6 tumors; 15 min) of 1.20±0.20 % injected dose per gram, a Spleen (C6 tumors; 15 min) of 1.09±0.10 % injected dose per gram and a Stomach (C6 tumors; 15 min) of 1.02±0.38 % injected dose per organ. It also gave a Tumor (C6 tumors; 15 min) of 2.26±0.45 % injected dose per gram, a Blood (C6 tumors; 30 min) of 4.74±1.17 % injected dose per gram and a Heart (C6 tumors; 30 min) of 1.76±0.40 % injected dose per gram. For the same compound, the Intestine (C6 tumors; 30 min) was 7.97±1.32 % injected dose per gram, the Kidney (C6 tumors; 30 min) was 77.74±8.14 % injected dose per gram and the Liver (C6 tumors; 30 min) was 42.20±1.51 % injected dose per gram. It also gave a Lung (C6 tumors; 30 min) of 3.16±1.07 % injected dose per gram, a Muscle (C6 tumors; 30 min) of 0.57±0.12 % injected dose per gram and a Pancreas (C6 tumors; 30 min) of 0.88±0.13 % injected dose per gram. It also gave a Spleen (C6 tumors; 30 min) of 0.84±0.14 % injected dose per gram, a Stomach (C6 tumors; 30 min) of 0.60±0.13 % injected dose per organ and a Tumor (C6 tumors; 30 min) of 1.63±0.38 % injected dose per gram. The Blood (C6 tumors; 60 min) was 3.25±0.66 % injected dose per gram, the Heart (C6 tumors; 60 min) was 1.12±0.17 % injected dose per gram and the Intestine (C6 tumors; 60 min) was 11.59±0.20 % injected dose per gram. It also gave a Kidney (C6 tumors; 60 min) of 71.54±8.25 % injected dose per gram, a Liver (C6 tumors; 60 min) of 30.46±3.28 % injected dose per gram and a Lung (C6 tumors; 60 min) of 2.19±0.52 % injected dose per gram. The Muscle (C6 tumors; 60 min) was 0.37±0.05 % injected dose per gram, the Pancreas (C6 tumors; 60 min) was 0.63±0.08 % injected dose per gram and the Spleen (C6 tumors; 60 min) was 0.65±0.08 % injected dose per gram. For the same compound, the Stomach (C6 tumors; 60 min) was 0.73±0.40 % injected dose per organ, the Tumor (C6 tumors; 60 min) was 1.09±0.05 % injected dose per gram and the Blood (C6 tumors; 180 min) was 3.29±0.40 % injected dose per gram. It also gave a Heart (C6 tumors; 180 min) of 1.14±0.04 % injected dose per gram, an Intestine (C6 tumors; 180 min) of 15.76±3.03 % injected dose per gram and a Kidney (C6 tumors; 180 min) of 73.44±4.42 % injected dose per gram. It also gave a Liver (C6 tumors; 180 min) of 33.97±4.98 % injected dose per gram, a Lung (C6 tumors; 180 min) of 1.88±0.25 % injected dose per gram and a Muscle (C6 tumors; 180 min) of 0.39±0.09 % injected dose per gram. The Pancreas (C6 tumors; 180 min) was 0.70±0.13 % injected dose per gram, the Spleen (C6 tumors; 180 min) was 0.82±0.11 % injected dose per gram and the Stomach (C6 tumors; 180 min) was 0.89±0.40 % injected dose per organ. For the same compound, the Tumor (C6 tumors; 180 min) was 1.37±0.24 % injected dose per gram, the T/B ratio (C6 tumors; 5 min) was 0.19±0.04 and the T/B ratio (C6 tumors; 15 min) was 0.34±0.06. It also gave a T/B ratio (C6 tumors; 30 min) of 0.35±0.03, a T/B ratio (C6 tumors; 60 min) of 0.34±0.05 and a T/B ratio (C6 tumors; 180 min) of 0.42±0.04. The T/M ratio (C6 tumors; 5 min) was 1.94±0.52, the T/M ratio (C6 tumors; 15 min) was 3.08±0.10 and the T/M ratio (C6 tumors; 30 min) was 2.96±0.73. It also gave a T/M ratio (C6 tumors; 60 min) of 2.95±0.41 and a T/M ratio (C6 tumors; 180 min) of 3.60±0.98.
